Structures are written as SMILES.

human MDM2 protein (amino acids 2-188), sequence (Q00987 2-188): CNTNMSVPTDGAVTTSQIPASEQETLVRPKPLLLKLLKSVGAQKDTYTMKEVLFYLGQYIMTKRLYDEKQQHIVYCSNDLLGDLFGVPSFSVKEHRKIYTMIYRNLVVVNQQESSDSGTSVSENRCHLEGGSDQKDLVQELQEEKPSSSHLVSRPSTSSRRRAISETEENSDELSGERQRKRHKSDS

This experiment has as its target human MDM2 protein (amino acids 2-188) (Homo sapiens (Human), UniProt Q00987). In words: TR-FRET assay, p53-MDM2 Assay 2 (modified). Conditions: TR-FRET; 0.1 nM MDM2, 0.1 nM Europium labeled streptavidin, Tecan genios Pro reader; read-out: IC50 p53-MDM2 Assay 2. It is filed as binding. An outline of the steps: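 IC50 values were curve-fitted from the time-resolved 665/620 nm emission ratio after 340 nm excitation. The assay combined 0.625 nM europium-streptavidin donor with 1.25 nM C-terminally biotinylated MDM2 2–188 (15 min, RT), followed by 15 min with 10 nM Cy5-labeled p53 18–26 acceptor peptide.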
(In general: Time-resolved FRET reads energy transfer from a long-lived donor to a nearby acceptor.)
For the compound `COc1ncncc1-c1cc2c(n1C(C)C)C(c1ccc(Cl)cc1)N(c1cc(Cl)ccc1C)C2=O` (stereo not drawn) [Example 16, 5-(5-Chloro-2-methyl-phenyl)-6-(4-chloro-phenyl)-1-isopropyl-2-(4-methoxy-pyrimidin-5-yl)-5,6-dihydro-1H-pyrrolo[3,4-b]pyrrol-4-one], the IC50 (in general, the concentration needed to halve the response being measured) stood at 0.308 nM.
In the case of `COc1nc(N(C)C)ncc1-c1cc2c(n1C(C)C)C(c1ccc(Cl)cc1)N([C@H]1CC[C@H](O)CC1)C2=O` (stereo partly drawn) [Example 69, 6-(4-Chloro-phenyl)-2-(2-dimethylamino-4-methoxy-pyrimidin-5-yl)-5-(trans-4-hydroxy-cyclohexyl)-1-isopropyl-5,6-dihydro-1H-pyrrolo[3,4-b]pyrrol-4-one], the IC50 was found to be 0.777 nM.
Regarding `COc1nc(N)ncc1-c1cc2c(n1C(C)C)C(c1ccc(Cl)cc1)N(c1cc(Cl)cn(C)c1=O)C2=O` (stereo not drawn) [Example 71, 2-(2-Amino-4-methoxy-pyrimidin-5-yl)-5-(5-chloro-1-methyl-2-oxo-1,2-dihydro-pyridin-3-yl)-6-(4-chloro-phenyl)-1-isopropyl-5,6-dihydro-1H-pyrrolo[3,4-b]pyrrol-4-one], the IC50 is 0.635 nM.
As to `COc1nc(N(C)C)ncc1-c1cc2c(n1C(C)C)C(c1ccc(Cl)cc1)N(c1cc(Cl)ccc1C)C2=O` (stereo not drawn) [Example 27, 5-(5-Chloro-2-methyl-phenyl)-6-(4-chloro-phenyl)-2-(2-dimethylamino-4-methoxy-pyrimidin-5-yl)-1-isopropyl-5,6-dihydro-1H-pyrrolo[3,4-b]pyrrol-4-one], the IC50 was 0.225 nM.
In the case of `COc1ncc(-c2cc3c(n2C(C)C)C(c2ccc(C#N)c(F)c2)N(c2cc(Cl)cn(C)c2=O)C3=O)c(OC)n1` (stereo not drawn) [Example 198, 4-[5-(5-Chloro-1-methyl-2-oxo-1,2-dihydro-pyridin-3-yl)-2-(2,4-dimethoxy-pyrimidin-5-yl)-1-isopropyl-4-oxo-1,4,5,6-tetrahydro-pyrrolo[3,4-b]pyrrol-6-yl]-2-fluoro-benzonitrile], the half-maximal inhibitory concentration (IC50) stood at 0.691 nM.
With `COc1ccc(S(C)(=O)=O)cc1-c1cc2c(n1C(C)C)C(c1ccc(Cl)cc1)N(c1cc(Cl)c(=O)n(C)c1)C2=O` (stereo not drawn) [Example 119, 5-(5-Chloro-1-methyl-6-oxo-1,6-dihydro-pyridin-3-yl)-6-(4-chloro-phenyl)-1-isopropyl-2-(5-methanesulfonyl-2-methoxy-phenyl)-5,6-dihydro-1H-pyrrolo[3,4-b]pyrrol-4-one], the IC50 was found to be 0.168 nM.
The same measure for `COc1ccc(C(=O)O)cc1-c1cc2c(n1C(C)C)C(c1ccc(Cl)cc1)N(c1ccc(F)c(Cl)c1)C2=O` (stereo not drawn) [Example 56, 3-[5-(3-Chloro-4-fluoro-phenyl)-6-(4-chloro-phenyl)-1-isopropyl-4-oxo-1,4,5,6-tetrahydro-pyrrolo[3,4-b]pyrrol-2-yl]-4-methoxy-benzoic acid]: 0.351 nM; for `COc1nc(N(C)C)ncc1-c1cc2c(n1C(C)C)C(c1ccc(C#N)c(F)c1)N(c1cc(Cl)c[nH]c1=O)C2=O` (stereo not drawn) [Example 201, 4-[5-(5-Chloro-2-oxo-1,2-dihydro-pyridin-3-yl)-2-(2-dimethylamino-4-methoxy-pyrimidin-5-yl)-1-isopropyl-4-oxo-1,4,5,6-tetrahydro-pyrrolo[3,4-b]pyrrol-6-yl]-2-fluoro-benzonitrile]: 0.25 nM.
Regarding `COc1nc(N)ncc1-c1cc2c(n1C(C)C)[C@H](c1ccc(C#N)cc1)N(c1ccc(F)c(Cl)c1)C2=O` [Example 171, 4-[(S)-2-(2-Amino-4-methoxy-pyrimidin-5-yl)-5-(3-chloro-4-fluoro-phenyl)-1-isopropyl-4-oxo-1,4,5,6-tetrahydro-pyrrolo[3,4-b]pyrrol-6-yl]-benzonitrile], the half-inhibitory concentration (IC50) is 0.699 nM.
In the case of `CNC(=O)c1ccc(OC)c(-c2cc3c(n2C(C)C)C(c2ccc(Cl)cc2)N([C@H]2CC[C@H](O)CC2)C3=O)c1` (stereo partly drawn) [Example 64, 3-[6-(4-Chloro-phenyl)-5-(trans-4-hydroxy-cyclohexyl)-1-isopropyl-4-oxo-1,4,5,6-tetrahydro-pyrrolo[3,4-b]pyrrol-2-yl]-4-methoxy-N-methyl-benzamide], the concentration for half-maximal inhibition (IC50) is 1 nM.
The same measure for `COc1nc(N(C)C)ncc1-c1cc2c(n1C(C)C)C(c1ccc(C#N)cc1)N(c1c[nH]c(=O)c(Cl)c1)C2=O` (stereo not drawn) [Example 136, 4-[5-(5-Chloro-6-oxo-1,6-dihydro-pyridin-3-yl)-2-(2-dimethylamino-4-methoxy-pyrimidin-5-yl)-1-isopropyl-4-oxo-1,4,5,6-tetrahydro-pyrrolo[3,4-b]pyrrol-6-yl]-benzonitrile]: 0.131 nM; for `COc1ncc(-c2cc3c(n2C(C)C)[C@@H](c2ccc(C#N)cc2)N(c2cc(Cl)c(=O)n(C)c2)C3=O)c(OC)n1` [Example 187, 4-[(R)-5-(5-Chloro-1-methyl-6-oxo-1,6-dihydro-pyridin-3-yl)-2-(2,4-dimethoxy-pyrimidin-5-yl)-1-isopropyl-4-oxo-1,4,5,6-tetrahydro-pyrrolo[3,4-b]pyrrol-6-yl]-benzonitrile]: 144 nM.
As for `COc1nc(N(C)C)ncc1-c1cc2c(n1C(C)C)C(c1ccc(Cl)cc1)N([C@H]1CC[C@H](OC)CC1)C2=O` (stereo partly drawn) [Example 142, 6-(4-Chloro-phenyl)-2-(2-dimethylamino-4-methoxy-pyrimidin-5-yl)-1-isopropyl-5-(trans-4-methoxy-cyclohexyl)-5,6-dihydro-1H-pyrrolo[3,4-b]pyrrol-4-one], the figure is 0.74 nM; as for `CNC(=O)c1ccc(OC)c(-c2cc3c(n2C(C)C)[C@@H](c2ccc(Cl)cc2)N(c2cc(Cl)ccc2C)C3=O)c1` [Example 19, 3-[(R)-5-(5-Chloro-2-methyl-phenyl)-6-(4-chloro-phenyl)-1-isopropyl-4-oxo-1,4,5,6-tetrahydro-pyrrolo[3,4-b]pyrrol-2-yl]-4-methoxy-N-methyl-benzamide], 181 nM; as for `COc1ncc(-c2cc3c(n2C(C)C)C(c2ccc(Cl)cc2)N(c2cc(Cl)c[nH]c2=O)C3=O)c(OC)n1` (stereo not drawn) [Example 204, 5-(5-Chloro-2-oxo-1,2-dihydro-pyridin-3-yl)-6-(4-chloro-phenyl)-2-(2,4-dimethoxy-pyrimidin-5-yl)-1-isopropyl-5,6-dihydro-1H-pyrrolo[3,4-b]pyrrol-4-one], 0.195 nM.
Consider `COc1nc(N(C)C)ncc1-c1cc2c(n1C(C)C)C(c1ccc(Cl)cc1F)N(c1cc(C)nn1C)C2=O` (stereo not drawn) [Example 212, 6-(4-Chloro-2-fluoro-phenyl)-2-(2-dimethylamino-4-methoxy-pyrimidin-5-yl)-5-(2,5-dimethyl-2H-pyrazol-3-yl)-1-isopropyl-5,6-dihydro-1H-pyrrolo[3,4-b]pyrrol-4-one], for which the IC50 is 0.769 nM.
Turning to `COc1ccccc1-c1cc2c(n1C(C)C)C(C)(c1ccc(Cl)cc1)N(c1cc(Cl)ccc1C)C2=O` (stereo not drawn) [Example 116, 5-(5-Chloro-2-methyl-phenyl)-6-(4-chloro-phenyl)-1-isopropyl-2-(2-methoxy-phenyl)-6-methyl-5,6-dihydro-1H-pyrrolo[3,4-b]pyrrol-4-one], the half-maximal inhibitory concentration (IC50) is 0.496 nM.
As for `COc1ccc(C(=O)N(C)C)cc1-c1cc2c(n1C(C)C)[C@H](c1ccc(Cl)cc1)N(c1cc(Cl)ccc1C)C2=O` [Example 20, 3-[(S)-5-(5-Chloro-2-methyl-phenyl)-6-(4-chloro-phenyl)-1-isopropyl-4-oxo-1,4,5,6-tetrahydro-pyrrolo[3,4-b]pyrrol-2-yl]-4-methoxy-N,N-dimethyl-benzamide], the figure is 0.075 nM.
As for `COc1ccc(CC(=O)O)cc1-c1cc2c(n1C(C)C)C(c1ccc(Cl)cc1)N(c1cc(Cl)ccc1C)C2=O` (stereo not drawn) [Example 60, {3-[5-(5-Chloro-2-methyl-phenyl)-6-(4-chloro-phenyl)-1-isopropyl-4-oxo-1,4,5,6-tetrahydro-pyrrolo[3,4-b]pyrrol-2-yl]-4-methoxy-phenyl}-acetic acid], the half-inhibitory concentration (IC50) amounted to 0.155 nM.
`CNc1ncc(-c2cc3c(n2C(C)C)C(c2ccc(Cl)cc2)N(c2cc(Cl)ccc2C)C3=O)c(OC)n1` (stereo not drawn) [Example 26, 5-(5-Chloro-2-methyl-phenyl)-6-(4-chloro-phenyl)-1-isopropyl-2-(4-methoxy-2-methylamino-pyrimidin-5-yl)-5,6-dihydro-1H-pyrrolo[3,4-b]pyrrol-4-one]: the half-maximal inhibitory concentration (IC50) turned out to be 0.195 nM.
The same measure for `COc1ncc(-c2cc3c(n2C(C)C)C(c2ccc(Cl)cc2)N([C@H]2CC[C@H](O)CC2)C3=O)c(OC)n1` (stereo partly drawn) [Example 66, 6-(4-Chloro-phenyl)-2-(2,4-dimethoxy-pyrimidin-5-yl)-5-(trans-4-hydroxy-cyclohexyl)-1-isopropyl-5,6-dihydro-1H-pyrrolo[3,4-b]pyrrol-4-one]: 1.39 nM; for `CNC(=O)Cc1cc(-c2cc3c(n2C(C)C)C(c2ccc(C#N)cc2)N(c2cccc(Cl)c2F)C3=O)c(OC)cn1` (stereo not drawn) [Example 86, 2-{4-[5-(3-Chloro-2-fluoro-phenyl)-6-(4-cyano-phenyl)-1-isopropyl-4-oxo-1,4,5,6-tetrahydro-pyrrolo[3,4-b]pyrrol-2-yl]-5-methoxy-pyridin-2-yl}-N-methyl-acetamide]: 0.334 nM; for `COc1ncc(-c2cc3c(n2C(C)C)[C@H](c2ccc(C#N)c(F)c2)N(c2cc(Cl)c(=O)n(C)c2)C3=O)c(OC)n1` [Example 237, (S)-4-(5-(5-Chloro-1-methyl-6-oxo-1,6-dihydropyridin-3-yl)-2-(2,4-dimethoxypyrimidin-5-yl)-1-isopropyl-4-oxo-1,4,5,6-tetrahydropyrrolo[3,4-b]pyrrol-6-yl)-2-fluorobenzonitrile]: 0.107 nM.
Consider `COc1nc(N(C)C)ncc1-c1cc2c(n1C(C)C)C(c1ccc(Cl)c(F)c1)N(c1cc(Cl)c(=O)n(C)c1)C2=O` (stereo not drawn) [Example 193, 6-(4-Chloro-3-fluoro-phenyl)-5-(5-chloro-1-methyl-6-oxo-1,6-dihydro-pyridin-3-yl)-2-(2-dimethylamino-4-methoxy-pyrimidin-5-yl)-1-isopropyl-5,6-dihydro-1H-pyrrolo[3,4-b]pyrrol-4-one], for which the IC50 was found to be 0.139 nM.
